According to ChEMBL document CHEMBL5096147, “Glycogen Synthase Kinase 3β: A New Gold Rush in Anti-Alzheimer's Disease Multitarget Drug Discovery?” (J Med Chem, 2021):

Experiments:
[1] = target: Adenosine kinase (Homo sapiens, UniProt P55263); test: Inhibition of human wild type AK expressed in Escherichia coli using [2,8- 3H]-Ado and ATP as substrate by radiometric analysis
[2] = target: Beta-secretase 1 (Homo sapiens, UniProt P56817); test: Inhibition of BACE-1 (unknown origin) using M-240 (methoxycoumarin-Ser-Glu-Val-Asn-Leu-Asp-Ala-Glu-Phe-Lys-dinitrophenyl) peptide as substrate preincubated for 60 mins followed by substrate addition and measured after 15 mins by fluorescence based analysis
Chain of Beta-secretase 1 (P56817 whole entry): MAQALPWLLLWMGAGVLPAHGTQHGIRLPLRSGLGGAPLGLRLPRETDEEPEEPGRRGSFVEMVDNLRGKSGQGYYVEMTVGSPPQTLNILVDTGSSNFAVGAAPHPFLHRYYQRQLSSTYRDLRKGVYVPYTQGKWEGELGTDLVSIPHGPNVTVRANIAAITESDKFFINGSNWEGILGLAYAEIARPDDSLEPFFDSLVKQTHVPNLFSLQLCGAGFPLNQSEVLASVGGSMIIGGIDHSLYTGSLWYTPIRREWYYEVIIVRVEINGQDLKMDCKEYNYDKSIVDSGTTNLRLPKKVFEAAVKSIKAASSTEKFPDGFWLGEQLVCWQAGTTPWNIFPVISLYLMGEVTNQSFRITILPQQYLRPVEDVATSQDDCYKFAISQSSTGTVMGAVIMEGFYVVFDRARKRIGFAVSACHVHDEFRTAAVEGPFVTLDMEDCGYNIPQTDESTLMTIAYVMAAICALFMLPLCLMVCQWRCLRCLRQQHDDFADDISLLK

[3] = target: T1, Glycogen synthase kinase-3 beta (Homo sapiens, UniProt P49841); test: Inhibition of recombinant human GSK-3beta incubated for 30 mins using prephosphorylated polypeptide as substrate in presence of ATP by Kinase-Glo reagent based luminescent assay
T1 sequence (P49841 whole entry): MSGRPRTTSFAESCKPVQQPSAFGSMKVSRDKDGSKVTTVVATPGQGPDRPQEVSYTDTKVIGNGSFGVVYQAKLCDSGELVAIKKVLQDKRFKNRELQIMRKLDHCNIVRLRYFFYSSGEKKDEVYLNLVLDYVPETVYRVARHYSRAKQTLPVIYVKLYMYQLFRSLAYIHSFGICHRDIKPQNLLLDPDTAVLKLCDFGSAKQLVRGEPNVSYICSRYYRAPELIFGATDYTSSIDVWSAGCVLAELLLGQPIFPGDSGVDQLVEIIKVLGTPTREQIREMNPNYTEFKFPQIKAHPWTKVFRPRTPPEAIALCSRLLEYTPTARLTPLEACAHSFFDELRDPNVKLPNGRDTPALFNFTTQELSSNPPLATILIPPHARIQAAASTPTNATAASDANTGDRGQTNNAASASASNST

[4] = Kinetic aqueous solubility of the compound in PBS buffer at pH 7.4 at 250 uM and measured after 24 hrs by UPLC/MS analysis; format: physicochemical; details: read-out: Kinetic_solubility
[5] = Cmax in CD-1 mouse plasma at 10 mg/kg, po and measured after 30 mins by LC-MS/MS analysis; format: ADME, organism-based; set-up: dose 10 mg/kg, time 30 min, route po
[6] = Cmax in CD-1 mouse brain at 10 mg/kg, po and measured after 30 mins by LC-MS/MS analysis; format: ADME, organism-based; set-up: dose 10 mg/kg, time 30 min, route po
[7] = target: T1, Glycogen synthase kinase-3 beta
Description: Inhibition of GSK-3beta (unknown origin)

Chain of Adenosine kinase (P55263 whole entry): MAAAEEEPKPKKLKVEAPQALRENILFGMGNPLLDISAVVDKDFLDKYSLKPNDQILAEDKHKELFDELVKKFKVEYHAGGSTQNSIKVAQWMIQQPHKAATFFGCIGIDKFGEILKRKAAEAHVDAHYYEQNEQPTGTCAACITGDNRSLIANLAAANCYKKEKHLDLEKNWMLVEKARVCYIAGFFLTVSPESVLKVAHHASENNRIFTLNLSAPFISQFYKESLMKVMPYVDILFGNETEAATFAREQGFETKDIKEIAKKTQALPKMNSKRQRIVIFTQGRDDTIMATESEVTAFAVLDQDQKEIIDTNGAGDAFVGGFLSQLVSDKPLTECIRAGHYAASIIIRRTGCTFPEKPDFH

CCC1(c2ccc(COc3ccccc3)cc2)Oc2ccccc2-n2cccc2C1=O (configuration not stated)
IC50 [1]: 1200 nM

NC1=NC(c2ccc(F)cc2)CC(=O)N1 (configuration not stated)
IC50 [2]: 18 µM | IC50 [3]: 14.7 µM | solubility kinetic at 24 h, 250 µM [4]: > 250 µM | Cmax [5]: 665 ng/mL | Cmax [6]: 0.613 ng/mL

COc1cc2c(Br)cc3c(c2cc1OC)C(=O)NC3=O
IC50 [7]: 304 nM
